Each structure is given as a SMILES string.

The data set relates to Biomphalaria glabrata. As to the kind of experiment: Toxic molluscicidal activity against Biomphalaria glabrata. The format is ADME, organism-based. Particulars: in vivo.

Consider `CO[C@]1(CC[C@H](C)CO[C@@H]2O[C@H](CO)[C@@H](O)[C@H](O)[C@H]2O)O[C@H]2C[C@H]3[C@@H]4CC=C5C[C@@H](O[C@@H]6O[C@H](CO)[C@@H](O)[C@H](O[C@@H]7O[C@@H](C)[C@H](O)[C@@H](O)[C@H]7O)[C@H]6O[C@@H]6O[C@@H](C)[C@H](O)[C@@H](O)[C@H]6O)CC[C@]5(C)[C@H]4CC[C@]3(C)[C@H]2[C@@H]1C`, for which the Activity result is reported as “Non-toxic”.
In the case of `C[C@@H](CC[C@@]1(O)O[C@H]2C[C@H]3[C@@H]4CC=C5C[C@@H](O[C@@H]6O[C@H](CO)[C@@H](O)[C@H](O[C@@H]7O[C@@H](C)[C@H](O)[C@@H](O)[C@H]7O)[C@H]6O[C@@H]6O[C@@H](C)[C@H](O)[C@@H](O)[C@H]6O)CC[C@]5(C)[C@H]4CC[C@]3(C)[C@H]2[C@@H]1C)CO[C@@H]1O[C@H](CO)[C@@H](O)[C@H](O)[C@H]1O`, the Activity result is “Non-toxic”.
